One assay addresses T1, human Factor Xa (Homo sapiens, UniProt P00742).
T1 construct: commercial human Factor Xa (American Diagnostica); purchased American Diagnostica
As to the kind of experiment: Factor Xa inhibition, enzyme-catalyzed hydrolysis assay (chromogenic substrate). The conditions noted are these: 5.7 nM Factor Xa, 30-700 μM substrate, pH 8.4, 37° C. It is filed as biochemical. The method, then:
Enzyme-catalyzed hydrolysis rates were measured spectrophotometrically using commercial human Factor Xa (American Diagnostica), the chromogenic substrate (Meo—CO—D—CHG—Gly—Arg—pNa (American Diagnostica); in aqueous buffer (50 mM Trisma Base, 0.1% Tween 80, pH 8.4), and a microplate reader (Molecular Devices). Changes in absorbance at 405 nm were monitored using the software program Softmax (Molecular Devices), upon addition of enzyme, with and without inhibitor present at 37° C. for 30 minutes. The IC50 values were determined by fixing the enzyme and substrate concentrations (5.7 nM Factor Xa, 500 μM Factor Xa substrate) and varying the inhibitor concentration. Percent inhibition was calculated by comparing the initial reaction slopes of the without inhibitor samples to those with inhibitor. Inhibition constants (Ki) were determined by fixing the enzyme concentrations (5.7 nM Factor Xa) and inhibitor concentration and varying the substrate concentrations (30-700 μM Factor Xa substrate. Michaelis-Menton kinetics were applied to the initial reaction slopes using the program Kcat (Bio Metallics Inc.).
T1 sequence (P00742 235-488 limits assumed): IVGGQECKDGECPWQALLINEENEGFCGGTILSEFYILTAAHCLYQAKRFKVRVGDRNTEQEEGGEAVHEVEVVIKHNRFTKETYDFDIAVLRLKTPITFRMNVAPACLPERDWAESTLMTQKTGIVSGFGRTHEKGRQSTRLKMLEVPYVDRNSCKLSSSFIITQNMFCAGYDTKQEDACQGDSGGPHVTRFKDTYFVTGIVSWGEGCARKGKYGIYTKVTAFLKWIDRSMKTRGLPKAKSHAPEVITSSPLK
T1 sequence (P00742 41-179 partner limits assumed): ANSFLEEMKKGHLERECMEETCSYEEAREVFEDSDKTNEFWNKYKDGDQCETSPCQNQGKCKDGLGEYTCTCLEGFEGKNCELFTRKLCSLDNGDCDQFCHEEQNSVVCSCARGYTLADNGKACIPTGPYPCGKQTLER
A word on the Ki: it is the dissociation constant of the complex between target and ligand, obtained from inhibition or displacement. Read a low Ki as higher affinity. In turn, `NC(N)=Nc1ccc(C(=O)N(Cc2ccc(O)cc2)C2CCN(S(=O)(=O)/C=C/c3ccc(Cl)cc3)C2)cc1` (stereo not shown) [Compound 2, N-[1-[[(E)-2-(4-chlorophenyl)ethenyl]sulfonyl]-3-pyrrolidinyl]-4-[(diaminomethylene)amino]-N-[(4-hydroxyphenyl)methyl]-benzamide] had a Ki of 300 nM.
For the compound `NC(N)=Nc1ccc(C(=O)N(Cc2ccccc2)C2CCN(S(=O)(=O)/C=C/c3ccc(Cl)cc3)C2)cc1` (stereo not shown) [Compound 1, N-[1-[[(E)-2-(4-chlorophenyl)ethenyl]sulfonyl]-3-pyrrolidinyl]-4-[(diaminomethylene)amino]-N-(phenylmethyl)-benzamide], the inhibition constant (Ki) was determined as 1600 nM.
On the same count and under the same terms, then `NC(=O)c1ccc(CN(C(=O)c2ccc(N=C(N)N)cc2)C2CCN(S(=O)(=O)/C=C/c3ccc(Cl)cc3)C2)cc1` (stereo not shown) [Compound 9, N-[[4-(aminocarbonyl)phenyl]methyl]-N-[1-[[(E)-2-(4-chlorophenyl)ethenyl]sulfonyl]-3-pyrrolidinyl]-4-[(diaminomethylene)amino]-benzamide], with 300 nM; and `NC(N)=Nc1ccc(C(=O)N(Cc2cccc(C(=O)O)c2)C2CCN(S(=O)(=O)/C=C/c3ccc(Cl)cc3)C2)cc1` (stereo not shown) [Compound 6, 3-[[[1-[[(E)-2-(4-chlorophenyl)ethenyl]sulfonyl]-3-pyrrolidinyl][4-[(diaminomethylene)amino]benzoyl]amino]methyl]-benzoic acid], with 600 nM.
Turning to `COC(=O)c1ccc(CN(C2CCN(C(=O)c3ccc(N=C(N)N)cc3)C2)S(=O)(=O)/C=C/c2ccc(Cl)cc2)cc1` (stereo not shown) [Compound 22, 4-[[[[(E)-2-(4-chlorophenyl)ethenyl]sulfonyl][1-[4-[(diaminomethylene)amino]benzoyl]-3-pyrrolidinyl]amino]methyl]-benzoic acid methyl ester], the affinity corresponds to a Ki of 7100 nM.
The same measure, in the same setting: the value for `NC(N)=Nc1ccc(C(=O)N2CCC(N(Cc3ccc(OCc4ccccc4)cc3)S(=O)(=O)/C=C/c3ccc(Cl)cc3)C2)cc1` (stereo not shown) [Compound 17, 2-(4-chlorophenyl)-N-[1-[4-[(diaminomethylene)amino]benzoyl]-3-pyrrolidinyl]-N-[[4-(phenylmethoxy)phenyl]methyl]-(E)-ethenesulfonamide] was 4400 nM; that for “4-[(aminoiminomethyl)amino]-N-(2-benzofuranylmethyl)-N-[1-[[(E)-2-(4-chlorophenyl)ethenyl]sulfonyl]-3-pyrrolidinyl]-benzamide [Compound 27]” was 100 nM.
Still for that read-out and setting: the value for `COC(=O)c1ccc(CN(C(=O)c2ccc(N=C(N)N)cc2)C2CCN(S(=O)(=O)/C=C/c3ccc(Cl)cc3)C2)cc1` (stereo not shown) [Compound 3, 4-[[[1-[[(E)-2-(4-chlorophenyl)ethenyl]sulfonyl]-3-pyrrolidinyl][4-[(diaminomethylene)amino]benzoyl]amino]methyl]-benzoic acid methyl ester] was 400 nM; that for `NC(N)=Nc1ccc(C(=O)N(Cc2ccc(C(=O)NCC(=O)O)cc2)C2CCN(S(=O)(=O)/C=C/c3ccc(Cl)cc3)C2)cc1` (stereo not shown) [Compound 12, [[4-[[[1-[[(E)-2-(4-chlorophenyl)ethenyl]sulfonyl]-3-pyrrolidinyl][4-[(diaminomethylene)amino]benzoyl]amino]methyl]benzoyl]-amino]-acetic acid] was 400 nM; that for `COC(=O)COc1cccc(CN(C(=O)c2ccc(N=C(N)N)cc2)C2CCN(S(=O)(=O)/C=C/c3ccc(Cl)cc3)C2)c1` (stereo not shown) [Compound 8, [3-[[[1-[[(E)-2-(4-chlorophenyl)ethenyl]sulfonyl]-3-pyrrolidinyl][4-[(diaminomethylene)amino]benzoyl]amino]methyl]phenoxy]-acetic acid methyl ester] was 1100 nM.
Still for that read-out and setting: the value for `NC(=O)c1cccc(CN(C(=O)c2ccc(N=C(N)N)cc2)C2CCN(S(=O)(=O)/C=C/c3ccc(Cl)cc3)C2)c1` (stereo not shown) [Compound 15, 3-[[[1-[[(E)-2-(4-chlorophenyl)ethenyl]sulfonyl]-3-pyrrolidinyl][4-[(diaminomethylene)amino]benzoyl]amino]methyl]-benzamide] was 600 nM.
For the compound `NC(N)=Nc1ccc(C(=O)N(Cc2ccc(C(=O)O)cc2)C2CCN(S(=O)(=O)/C=C/c3ccc(Cl)cc3)C2)cc1` (stereo not shown) [Compound 5, 4-[[[1-[[(E)-2-(4-chlorophenyl)ethenyl]sulfonyl]-3-pyrrolidinyl][4-[(diaminomethylene)amino]benzoyl]amino]methyl]-benzoic acid], the Ki amounted to 200 nM. This Ki is about 3-fold lower than that of the compound before.
Consider `NC(N)=Nc1ccc(C(=O)N(Cc2cccc(OCC(=O)O)c2)C2CCN(S(=O)(=O)/C=C/c3ccc(Cl)cc3)C2)cc1` (stereo not shown) [Compound 11, [3-[[[1-[[(E)-2-(4-chlorophenyl)ethenyl]sulfonyl]-3-pyrrolidinyl][4-[(diaminomethylene)amino]benzoyl]amino]methyl]phenoxy]-acetic acid], for which the affinity, expressed as Ki, was 600 nM. This Ki is about 3-fold higher than that of the compound before.
`COC(=O)CNC(=O)c1cccc(CN(C(=O)c2ccc(N=C(N)N)cc2)C2CCN(S(=O)(=O)/C=C/c3ccc(Cl)cc3)C2)c1` (stereo not shown) [Compound 13, [[3-[[[1-[[(E)-2-(4-chlorophenyl)ethenyl]sulfonyl]-3-pyrrolidinyl][4-[(diaminomethylene)amino]benzoyl]amino]methyl]benzoyl]amino]-acetic acid methyl ester] displayed a Ki of 200 nM.
The compound `COC(=O)CNC(=O)c1ccc(CN(C(=O)c2ccc(N=C(N)N)cc2)C2CCN(S(=O)(=O)/C=C/c3ccc(Cl)cc3)C2)cc1` (stereo not shown) [Compound 10, [[4-[[[1-[[(E)-2-(4-chlorophenyl)ethenyl]sulfonyl]-3-pyrrolidinyl][4-[(diaminomethylene)amino]benzoyl]amino]methyl]benzoyl]amino]-acetic acid methyl ester] gave a Ki of 200 nM. This counts as sub-micromolar.
`COc1ccc2ccc(S(=O)(=O)N(Cc3ccccc3)C3CCN(C(=O)c4ccc(N=C(N)N)cc4)C3)cc2c1` (stereo not shown) [Compound 23, N-[1-[4-[(diaminomethylene)amino]benzoyl]-3-pyrrolidinyl]-7-methoxy-N-(phenylmethyl)-2-naphthalenesulfonamide] returned a Ki of 21000 nM.
In turn, `NC(N)=Nc1ccc(C(=O)N(Cc2cccc(C(=O)NCC(=O)O)c2)C2CCN(S(=O)(=O)/C=C/c3ccc(Cl)cc3)C2)cc1` (stereo not shown) [Compound 14, [[3-[[[1-[[(E)-2-(4-chlorophenyl)ethenyl]sulfonyl]-3-pyrrolidinyl][4-[(diaminomethylene)amino]benzoyl]amino]methyl]benzoyl]amino]-acetic acid] gave a Ki of 300 nM.
The compound `COC(=O)c1cccc(CN(C(=O)c2ccc(N=C(N)N)cc2)C2CCN(S(=O)(=O)/C=C/c3ccc(Cl)cc3)C2)c1` (stereo not shown) [Compound 4, 3-[[[1-[[(E)-2-(4-chlorophenyl)ethenyl]sulfonyl]-3-pyrrolidinyl][4-[(diaminomethylene)amino]benzoyl]amino]methyl]-benzoic acid methyl ester] registered a Ki of 7700 nM.

The target of another assay is T2, human Lung Tryptase.
T2 construct: 1.0 nM human Lung Tryptase
As to the kind of experiment: Tryptase inhibition, chromogenic peptide substrate hydrolysis assay. The conditions noted are these: 1.0 nM tryptase, 500 μM N-p-Tosyl-GLY-PRO-LYS-pNA, 37° C. The assay is classed as biochemical. How it is done: The rate of increase in absorbance at 405 nm due to hydrolysis of synthetic chromogenic peptide substrates ([S]: 500 μM N-p-Tosyl-GLY-PRO-LYS-pNA; Sigma T-6140) is measured in the presence and absence of inhibitors (I) with a microplate reader at 37° C. The enzyme reaction is started by the addition of enzyme ([E]: 1.0 nM human Lung Tryptase; Cortex Biochem CP3033). Data is collected over a period of 30 min. and the initial rate of substrate hydrolysis (Vo (mOD/min)) is calculated. Inhibition is calculated by comparing to wells […] (vehicle) and IC50s are determined using a four parameters fit logistics model.
For orientation: IC50 means the concentration that gives 50% inhibition. A higher IC50 goes with a need for much substance. Consider `NC(N)=Nc1ccc(C(=O)N(Cc2ccc(O)cc2)C2CCN(S(=O)(=O)/C=C/c3ccc(Cl)cc3)C2)cc1` (stereo not shown) [Compound 2, N-[1-[[(E)-2-(4-chlorophenyl)ethenyl]sulfonyl]-3-pyrrolidinyl]-4-[(diaminomethylene)amino]-N-[(4-hydroxyphenyl)methyl]-benzamide], for which half-maximal inhibition (IC50) was put at 900 nM.
On to `NC(N)=Nc1ccc(C(=O)NC2CCN(S(=O)(=O)/C=C/c3ccc(Cl)cc3)C2)cc1` (stereo not shown) [Compound 26, N-[1-[[(E)-2-(4-chlorophenyl)ethenyl]sulfonyl]-3-pyrrolidinyl]-4-[(diaminomethylene)amino]-benzamide], for which 600 nM corresponded to half-maximal inhibition (IC50). This IC50 is about 1.5-fold lower than that of the compound before.
Regarding “N-[[4-[(aminoiminomethyl)amino]phenyl]methyl]-N-[1-[[(E)-2-(4-chlorophenyl)ethenyl]sulfonyl]-3-pyrrolidinyl]-4-[(diaminomethylene)amino]-benzamide [Compound 24]”, the midpoint of inhibition, the IC50, lay at 4000 nM.
In turn, `COC(=O)c1cc(CN(C(=O)c2ccc(N=C(N)N)cc2)C2CCN(S(=O)(=O)/C=C/c3ccc(Cl)cc3)C2)ccc1O` (stereo not shown) [Compound 25, 5-[[[1-[[(E)-2-(4-chlorophenyl)ethenyl]sulfonyl]-3-pyrrolidinyl][4-[(diaminomethylene)amino]benzoyl]amino]methyl]-2-hydroxy-benzoic acid methyl ester] registered an IC50 of 700 nM. Against the preceding compound, the IC50 is about 5.7-fold lower.

These data come from patent US6630505B2, “Aminopyrrolidine sulfonamides as serine protease inhibitors” (Ortho-McNeil Pharmaceutical, Inc., priority 2001, dated 2003).
